Patent US8952024B2, “Herbicidal pyrimidone derivatives” (E I du Pont de Nemours and Company, priority 2009, dated 2015)

What was measured:
Test in all cases: Test B pre-/postemergence plant response
Assay type in all cases: in vivo
[1] = test system: Surinam grass (Brachiaria decumbens)
Description: (§1) Seeds of plant species selected from blackgrass (Alopecurus myosuroides), downy bromegrass (Bromus tectorum), green foxtail (Setaria viridis), Italian ryegrass (Lolium multiflorum), wheat (Triticum aestivum), wild oat (Avena fatua), deadnettle (henbit deadnettle, Lamium amplexicaule), galium (catchweed bedstraw, Galium aparine), bermudagrass (Cynodon dactylon), Surinam grass (Brachiaria decumbens), cocklebur (Xanthium strumarium), corn (Zea mays), large crabgrass (Digitaria sanguinalis), woolly cupgrass (Eriochloa villosa), giant foxtail (Setaria faberii), goosegrass (Eleusine indica), johnsongrass (Sorghum halepense), kochia (Kochia scoparia), lambsquarters (Chenopodium album), morningglory (Ipomoea coccinea), nightshade (eastern black nightshade, Solanum ptycanthum), yellow nutsedge (Cyperus esculentus), pigweed (Amaranthus retroflexus), ragweed (common ragweed, Ambrosia elatior), Russian thistle (Salsola kali), soybean (Glycine max), sunflower (common oilseed sunflower, Helianthus annuus) and velvetleaf (Abutilon theophrasti) were planted into a blend of loam soil and sand and treated preemergence with test compounds formulated in a non-phytotoxic solvent mixture which included a surfactant.
(§2) At the same time, plants selected from these crop and weed species and also winter barley (Hordeum vulgare), canarygrass (Phalaris minor), chickweed (Stellaria media) and windgrass (Apera spica-venti) were planted in pots containing Redi-Earth® planting medium (Scotts Company, 14111 Scottslawn Road, Marysville, Ohio 43041) comprising spaghnum peat moss, vermiculite, wetting agent and starter nutrients and treated with postemergence applications of some of the test chemicals formulated in the same manner. Plants ranged in height from 2 to 18 cm (1- to 4-leaf stage) for postemergence treatments.
(§3) Treated plants and controls were maintained in a greenhouse for 13 to 15 days, after which time all treated plants were visually evaluated and compared to controls. Plant response ratings, summarized in Table B, are based on a scale of 0 to 100 where 0 is no effect and 100 is complete control. A dash (-) response means no test result.

[2] = test system: blackgrass (Alopecurus myosuroides)
Description: as §1, §2, §3

[3] = test system: downy bromegrass (Bromus tectorum)
Description: as §1, §2, §3

[4] = test system: corn (Zea mays)
Description: as §1, §2, §3

[5] = test system: kochia (Kochia scoparia); details: Postemergence
Description: as §1, §2, §3

[6] = test system: soybean (Glycine max)
Description: as §1, §2, §3

[7] = test system: johnsongrass (Sorghum halepense)
Description: as §1, §2, §3

[8] = test system: pigweed (Amaranthus retroflexus)
Description: as §1, §2, §3

[9] = test system: woolly cupgrass (Eriochloa villosa)
Description: as §1, §2, §3

[10] = test system: velvetleaf (Abutilon theophrasti)
Description: as §1, §2, §3

[11] = test system: ragweed (common ragweed, Ambrosia elatior)
Description: as §1, §2, §3

[12] = test system: giant foxtail (Setaria faberii)
Description: as §1, §2, §3

[13] = test system: Italian ryegrass (Lolium multiflorum)
Description: as §1, §2, §3

[14] = Postemergence, 31 g ai/ha, 0 to 100 scale (0 no effect, 100 complete control)
[15] = Postemergence, 62 g ai/ha, scale 0 to 100 (0 no effect, 100 complete control)
[16] = Postemergence, 250 g ai/ha, scale 0 to 100 (0 no effect, 100 complete control), 13 to 15 days
[17] = Preemergence, 31 g ai/ha, scale 0 to 100 (0 no effect, 100 complete control)
[18] = Preemergence, 62 g ai/ha, scale 0 to 100 (0 no effect, 100 complete control)
[19] = Preemergence, 125 g ai/ha, scale 0 to 100, 0 no effect, 100 complete control
[20] = Preemergence, 250 g ai/ha, 0 to 100 scale
[21] = Postemergence, 125 g ai/ha, scale 0 to 100 (0 no effect, 100 complete control)

SMILES: COc1ccc(-n2c(-c3ccccc3)ncc(C(=O)C3=C(O)CCCC3=O)c2=O)cc1OC [Compound 218]
- Plant response rating, Surinam Grass [1, 14]: 75
- Plant response rating, Surinam Grass [1, 15]: 80
- Plant response rating, Surinam Grass [1, 16]: 90
- Plant response rating, Surinam Grass [1, 17]: 10
- Plant response rating, Surinam Grass [1, 18]: 65
- Plant response rating, Surinam Grass [1, 19]: 98
- Surinam Grass plant response rating [1, 20]: 100
- Plant response rating, Blackgrass [2, 14]: 0
- Plant response rating, Blackgrass [2, 15]: 0
- Plant response rating, Blackgrass [2, 21]: 5
- Plant response rating, Blackgrass [2, 16]: 5
- Plant response rating, Blackgrass [2, 17]: 0
- Plant response rating, Blackgrass [2, 18]: 0
- Plant response rating, Blackgrass [2, 19]: 0
- Blackgrass plant response rating [2, 20]: 20
- Plant response rating, Bromegrass, Downy [3, 14]: 5
- Plant response rating, Bromegrass, Downy [3, 15]: 15
- Plant response rating, Bromegrass, Downy [3, 21]: 20
- Plant response rating, Bromegrass, Downy [3, 16]: 30
- Plant response rating, Bromegrass, Downy [3, 17]: 0
- Plant response rating, Bromegrass, Downy [3, 18]: 0
- Plant response rating, Bromegrass, Downy [3, 19]: 0
- Bromegrass, Downy plant response rating [3, 20]: 0
- Plant response rating, Corn [4, 14]: 0
- Plant response rating, Corn [4, 15]: 10
- Plant response rating, Corn [4, 21]: 75
- Plant response rating, Corn [4, 16]: 80
- Plant response rating, Corn [4, 17]: 0
- Plant response rating, Corn [4, 18]: 0
- Plant response rating, Corn [4, 19]: 0
- Corn plant response rating [4, 20]: 0
- Plant response rating, Kochia ([5]; 31 g ai/ha, 0 to 100 scale (0 no effect, 100 complete control)): 35
- Plant response rating, Kochia ([5]; 62 g ai/ha, scale 0 to 100 (0 no effect, 100 complete control)): 85
- Plant response rating, Kochia ([5]; 125 g ai/ha, scale 0 to 100 (0 no effect, 100 complete control)): 100
- Plant response rating, Kochia ([5]; 250 g ai/ha, scale 0 to 100 (0 no effect, 100 complete control), 13 to 15 days): 100
- Plant response rating, Soybean [6, 14]: 85
- Plant response rating, Soybean [6, 15]: 100
- Plant response rating, Soybean [6, 16]: 100
- Plant response rating, Soybean [6, 17]: 0
- Plant response rating, Soybean [6, 18]: 65
- Plant response rating, Soybean [6, 19]: 80
- Soybean plant response rating [6, 20]: 90
- Plant response rating, Johnsongrass [7, 21]: 55
- Plant response rating, Johnsongrass [7, 16]: 80
- Plant response rating, Johnsongrass [7, 17]: 0
- Plant response rating, Johnsongrass [7, 18]: 0
- Plant response rating, Johnsongrass [7, 19]: 20
- Johnsongrass plant response rating [7, 20]: 45
- Plant response rating, Pigweed [8, 14]: 100
- Plant response rating, Pigweed [8, 15]: 100
- Plant response rating, Pigweed [8, 16]: 100
- Plant response rating, Pigweed [8, 17]: 100
- Plant response rating, Pigweed [8, 18]: 100
- Plant response rating, Pigweed [8, 19]: 100
- Pigweed plant response rating [8, 20]: 100
- Plant response rating, Cupgrass, Woolly [9, 14]: 40
- Plant response rating, Cupgrass, Woolly [9, 15]: 45
- Plant response rating, Cupgrass, Woolly [9, 21]: 60
- Plant response rating, Cupgrass, Woolly [9, 16]: 80
- Plant response rating, Cupgrass, Woolly [9, 17]: 0
- Plant response rating, Cupgrass, Woolly [9, 18]: 0
- Plant response rating, Cupgrass, Woolly [9, 19]: 65
- Cupgrass, Woolly plant response rating [9, 20]: 85
- Plant response rating, Velvetleaf [10, 14]: 85
- Plant response rating, Velvetleaf [10, 15]: 100
- Plant response rating, Velvetleaf [10, 16]: 100
- Plant response rating, Velvetleaf [10, 17]: 80
- Plant response rating, Velvetleaf [10, 18]: 85
- Plant response rating, Velvetleaf [10, 19]: 90
- Velvetleaf plant response rating [10, 20]: 100
- Plant response rating, Ragweed [11, 14]: 95
- Plant response rating, Ragweed [11, 15]: 95
- Plant response rating, Ragweed [11, 16]: 100
- Plant response rating, Ragweed [11, 17]: 85
- Plant response rating, Ragweed [11, 18]: 95
- Plant response rating, Ragweed [11, 19]: 98
- Ragweed plant response rating [11, 20]: 100
- Plant response rating, Foxtail, Giant [12, 14]: 40
- Plant response rating, Foxtail, Giant [12, 15]: 55
- Plant response rating, Foxtail, Giant [12, 21]: 65
- Plant response rating, Foxtail, Giant [12, 16]: 85
- Plant response rating, Foxtail, Giant [12, 17]: 0
- Plant response rating, Foxtail, Giant [12, 18]: 0
- Plant response rating, Foxtail, Giant [12, 19]: 20
- Foxtail, Giant plant response rating [12, 20]: 85
- Plant response rating, Ryegrass, Italian [13, 14]: 30
- Plant response rating, Ryegrass, Italian [13, 15]: 40
- Plant response rating, Ryegrass, Italian [13, 16]: 70
- Plant response rating, Ryegrass, Italian [13, 17]: 0
- Plant response rating, Ryegrass, Italian [13, 18]: 0
- Plant response rating, Ryegrass, Italian [13, 19]: 5
- Ryegrass, Italian plant response rating [13, 20]: 5
